Test results: patent US20240316022A1 (TYRA BIOSCIENCES, INC., priority 2021, published 2024)

How the values were obtained:
Test in all cases: Kinase binding assay (kinase-tagged T7 phage, qPCR), Kd
FGFR2 = molecular target: T1, FGFR2 (Homo sapiens, UniProt P21802); settings: read-out: FGFR2 (Kd nM)
T1 construct: made in house; host or cells: E. coli derived from BL21, infected with T7 phage
Protocol: (§1) Kinase-tagged T7 phage strains were prepared in an E. coli host derived from the BL21 strain. E. coli were grown to log-phase and infected with T7 phage and incubated with shaking at 32° C. until lysis. The lysates were centrifuged and filtered to remove cell debris. […] The liganded beads were blocked with excess biotin and washed with blocking buffer SeaBlock (Pierce), 1% BSA, 0.05% Tween 20, 1 mM DTT to remove unbound ligand and to reduce non-specific binding.
(§2) Kds were determined using an 11-point 3-fold compound dilution series with three DMSO control points. […] The compounds were then diluted directly into the assays such that the final concentration of DMSO was 0.9%. All reactions performed in polypropylene 384-well plate. Each was a final volume of 0.02 ml. […] The kinase concentration in the eluates was measured by qPCR.
(§3) Binding constants were calculated with a standard dose-response curve using the Hill equation: […]
(§4) The Hill Slope was set to −1. Curves were fitted using a non-linear least square fit with the Levenberg-Marquardt algorithm.

FGFR1 = molecular target: T2, FGFR1 (Homo sapiens, UniProt P11362); settings: read-out: FGFR1 (Kd nM)
T2 construct: made in house; host or cells: E. coli derived from BL21, infected with T7 phage
Protocol: as §1, §2, §3, §4

FGFR3 = molecular target: T3, FGFR3 (Homo sapiens, UniProt P22607); settings: read-out: FGFR3 (Kd nM)
T3 construct: made in house; host or cells: E. coli derived from BL21, infected with T7 phage
Protocol: (§5) Kinase-tagged T7 phage strains were prepared in an E. coli host derived from the BL21 strain. E. coli were grown to log-phase and infected with T7 phage and incubated with shaking at 32° C. until lysis. The lysates were centrifuged and filtered to remove cell debris. Streptavidin-coated magnetic beads were treated with biotinylated small molecule ligands for 30 minutes at room temperature to generate affinity resins for kinase assays. The liganded beads were blocked with excess biotin and washed with blocking buffer SeaBlock (Pierce), 1% BSA, 0.05% Tween 20, 1 mM DTT to remove unbound ligand and to reduce non-specific binding. Binding reactions were assembled by combining kinases, liganded affinity beads, and test compounds in 1× binding buffer (20% SeaBlock, 0.17×PBS, 0.05% Tween 20, 6 mM DTT).
(§6) Test compounds were prepared as 111X stocks in 100% DMSO. Kds were determined using an 11-point 3-fold compound dilution series with three DMSO control points. All compounds for Kd measurements are distributed by acoustic transfer (non-contact dispensing) in 100% DMSO. The compounds were then diluted directly into the assays such that the final concentration of DMSO was 0.9%. All reactions performed in polypropylene 384-well plate. Each was a final volume of 0.02 ml. The assay plates were incubated at room temperature with shaking for 1 hour and the affinity beads were washed with wash buffer (1×PBS, 0.05% Tween 20). The beads were then re-suspended in elution buffer (1×PBS, 0.05% Tween 20, 0.5 μM non-biotinylated affinity ligand) and incubated at room temperature with shaking for 30 minutes. The kinase concentration in the eluates was measured by qPCR.
as §3, §4

FGFR4 = molecular target: T4, FGFR4 (Homo sapiens, UniProt P22455); settings: read-out: FGFR4 (Kd nM)
T4 construct: made in house; host or cells: E. coli derived from BL21, infected with T7 phage
Protocol: as §5, §6, §3, §4

T2 sequence (P11362 22-822): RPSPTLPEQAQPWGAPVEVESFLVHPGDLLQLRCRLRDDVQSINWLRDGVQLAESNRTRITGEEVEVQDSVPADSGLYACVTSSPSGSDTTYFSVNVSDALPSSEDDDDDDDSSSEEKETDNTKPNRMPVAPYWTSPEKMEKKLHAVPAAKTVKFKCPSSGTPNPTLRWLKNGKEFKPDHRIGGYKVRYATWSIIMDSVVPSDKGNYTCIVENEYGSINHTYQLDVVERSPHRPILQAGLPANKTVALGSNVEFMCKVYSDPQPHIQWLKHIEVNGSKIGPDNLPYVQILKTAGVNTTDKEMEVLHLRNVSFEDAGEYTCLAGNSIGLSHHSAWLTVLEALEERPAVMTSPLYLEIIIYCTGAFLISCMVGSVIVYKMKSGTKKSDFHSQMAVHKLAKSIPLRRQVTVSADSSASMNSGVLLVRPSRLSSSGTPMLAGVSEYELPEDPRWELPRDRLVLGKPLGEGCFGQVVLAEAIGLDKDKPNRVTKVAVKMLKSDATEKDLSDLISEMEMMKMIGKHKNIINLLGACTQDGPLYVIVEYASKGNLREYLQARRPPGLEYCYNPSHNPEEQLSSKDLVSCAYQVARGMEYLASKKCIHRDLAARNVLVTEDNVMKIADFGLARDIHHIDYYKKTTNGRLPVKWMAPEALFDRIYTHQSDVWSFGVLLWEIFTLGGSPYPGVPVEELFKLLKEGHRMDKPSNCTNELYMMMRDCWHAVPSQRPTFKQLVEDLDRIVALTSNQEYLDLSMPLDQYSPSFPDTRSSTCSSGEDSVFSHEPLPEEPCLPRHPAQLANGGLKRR
T1 sequence (P21802 22-821): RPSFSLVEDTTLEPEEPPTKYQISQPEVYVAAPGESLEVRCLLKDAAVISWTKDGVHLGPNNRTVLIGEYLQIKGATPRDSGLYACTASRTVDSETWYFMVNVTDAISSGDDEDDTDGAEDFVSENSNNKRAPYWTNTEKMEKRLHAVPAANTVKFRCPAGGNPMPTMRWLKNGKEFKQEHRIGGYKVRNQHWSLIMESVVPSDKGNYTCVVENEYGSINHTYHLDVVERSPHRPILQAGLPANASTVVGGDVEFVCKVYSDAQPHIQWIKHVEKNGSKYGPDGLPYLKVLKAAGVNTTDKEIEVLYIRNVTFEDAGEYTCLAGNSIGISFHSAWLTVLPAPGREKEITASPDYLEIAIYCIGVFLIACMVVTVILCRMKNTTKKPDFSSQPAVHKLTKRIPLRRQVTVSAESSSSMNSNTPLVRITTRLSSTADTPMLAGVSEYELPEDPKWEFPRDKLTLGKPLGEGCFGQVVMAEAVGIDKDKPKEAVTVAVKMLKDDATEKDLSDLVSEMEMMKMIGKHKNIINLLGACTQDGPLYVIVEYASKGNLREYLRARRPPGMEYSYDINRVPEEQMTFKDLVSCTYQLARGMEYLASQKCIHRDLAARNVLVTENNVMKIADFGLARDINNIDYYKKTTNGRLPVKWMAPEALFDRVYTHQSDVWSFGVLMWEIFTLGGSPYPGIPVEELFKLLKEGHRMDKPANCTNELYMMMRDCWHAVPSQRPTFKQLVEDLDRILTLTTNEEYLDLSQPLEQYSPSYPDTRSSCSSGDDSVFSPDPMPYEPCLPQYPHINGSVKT
T4 sequence (P22455 22-802): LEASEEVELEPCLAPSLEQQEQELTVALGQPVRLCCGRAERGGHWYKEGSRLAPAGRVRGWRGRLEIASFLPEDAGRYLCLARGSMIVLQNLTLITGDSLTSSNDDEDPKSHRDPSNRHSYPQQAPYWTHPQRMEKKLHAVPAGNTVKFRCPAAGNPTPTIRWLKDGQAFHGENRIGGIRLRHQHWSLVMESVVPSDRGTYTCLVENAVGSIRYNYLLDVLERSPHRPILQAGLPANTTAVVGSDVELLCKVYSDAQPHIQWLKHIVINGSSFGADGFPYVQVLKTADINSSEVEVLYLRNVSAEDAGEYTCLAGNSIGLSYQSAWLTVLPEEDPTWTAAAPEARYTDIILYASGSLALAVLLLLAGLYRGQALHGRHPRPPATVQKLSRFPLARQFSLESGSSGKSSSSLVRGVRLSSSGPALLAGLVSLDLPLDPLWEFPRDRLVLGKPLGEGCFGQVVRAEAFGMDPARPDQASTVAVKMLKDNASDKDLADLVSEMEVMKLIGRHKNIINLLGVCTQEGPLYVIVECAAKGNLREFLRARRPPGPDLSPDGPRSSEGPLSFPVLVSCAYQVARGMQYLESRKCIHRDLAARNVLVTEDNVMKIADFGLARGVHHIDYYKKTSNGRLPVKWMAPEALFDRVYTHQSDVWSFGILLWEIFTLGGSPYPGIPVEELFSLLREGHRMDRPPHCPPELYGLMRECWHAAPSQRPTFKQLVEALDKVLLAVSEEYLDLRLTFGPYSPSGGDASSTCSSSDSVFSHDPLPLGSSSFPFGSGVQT
T3 sequence (P22607 23-806): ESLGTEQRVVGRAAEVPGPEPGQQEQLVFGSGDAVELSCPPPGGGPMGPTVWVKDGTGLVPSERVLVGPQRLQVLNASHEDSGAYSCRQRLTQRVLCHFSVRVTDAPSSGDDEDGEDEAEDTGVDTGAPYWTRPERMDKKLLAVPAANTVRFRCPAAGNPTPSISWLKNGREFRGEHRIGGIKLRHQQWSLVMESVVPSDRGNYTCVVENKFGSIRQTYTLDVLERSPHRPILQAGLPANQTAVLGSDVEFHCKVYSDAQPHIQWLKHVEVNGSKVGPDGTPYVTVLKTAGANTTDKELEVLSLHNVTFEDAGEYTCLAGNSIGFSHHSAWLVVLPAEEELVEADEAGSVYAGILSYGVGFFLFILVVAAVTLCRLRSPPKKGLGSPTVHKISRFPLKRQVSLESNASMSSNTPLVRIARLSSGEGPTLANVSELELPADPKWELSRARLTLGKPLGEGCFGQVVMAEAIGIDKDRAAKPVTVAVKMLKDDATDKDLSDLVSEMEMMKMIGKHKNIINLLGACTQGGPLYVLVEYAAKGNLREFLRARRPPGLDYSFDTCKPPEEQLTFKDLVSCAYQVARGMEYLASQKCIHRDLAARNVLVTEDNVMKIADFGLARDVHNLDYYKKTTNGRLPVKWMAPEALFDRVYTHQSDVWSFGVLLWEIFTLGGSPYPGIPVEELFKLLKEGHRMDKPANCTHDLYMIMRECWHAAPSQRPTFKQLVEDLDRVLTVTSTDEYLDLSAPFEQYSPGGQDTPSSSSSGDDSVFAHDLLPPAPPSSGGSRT

Kd (FGFR2) [nM] | Kd (FGFR1) [nM] | Kd (FGFR3) [nM] | Kd (FGFR4) [nM] | SMILES
> 1000 | > 1000 | 250 to 1000 | 0.1 to 100 | Cc1cnnc(C)c1[C@@H](C)Oc1ccc2[nH]nc(-c3cc(C#N)cc(OCC4CC4)c3)c2c1 [Example 78, 3-(cyclopropylmethoxy)-5-[5-[(1R)-1-(3,5-dimethylpyridazin-4-yl)ethoxy]-1H-indazol-3-yl]benzonitrile]
> 1000 | > 1000 | 250 to 1000 | 0.1 to 100 | COc1cc(-c2n[nH]c3ccc(O[C@H](C)c4c(Cl)cncc4Cl)cc23)cc(C#N)c1OC1CCNCC1 [Example 105, 5-[5-[(1R)-1-(3,5-dichloro-4-pyridyl)ethoxy]-1H-indazol-3-yl]-3-methoxy-2-(4-piperidyloxy)benzonitrile]
> 1000 | > 1000 | > 1000 | 100 to 250 | COc1cc(-c2n[nH]c3ccc(O[C@H](C)c4c(C)cnnc4C)cc23)cc(C#N)c1F [Example 93, (R)-5-(5-(1-(3,5-dimethylpyridazin-4-yl)ethoxy)-1H-indazol-3-yl)-2-fluoro-3-methoxybenzonitrile]
0.1 to 100 | 0.1 to 100 | 0.1 to 100 | 0.1 to 100 | Cc1cc2[nH]nc(-c3cnc(O[C@@H]4CCOC4)c(C#N)c3)c2cc1O[C@H](C)c1c(Cl)cncc1Cl [Example 135, 5-(5-((R)-1-(3,5-dichloropyridin-4-yl)ethoxy)-6-methyl-1H-indazol-3-yl)-2-(((R)-tetrahydrofuran-3-yl)oxy)nicotinonitrile]
100 to 250 | 250 to 1000 | 0.1 to 100 | 0.1 to 100 | Cc1cc(-c2n[nH]c3ccc(O[C@H](C)c4c(C)cnnc4C)cc23)cc(C#N)c1F [Example 77, 5-[5-[(1R)-1-(3,5-dimethylpyridazin-4-yl)ethoxy]-1H-indazol-3-yl]-2-fluoro-3-methyl-benzonitrile]
> 1000 | > 1000 | > 1000 | 0.1 to 100 | CCS(=O)(=O)N1CCOc2ncc(-c3n[nH]c4ccc(O[C@H](C)c5c(Cl)cncc5Cl)cc34)cc21 [Example 144]
0.1 to 100 | 0.1 to 100 | 0.1 to 100 | 0.1 to 100 | C[C@@H](Oc1ccc2[nH]nc(-c3ccc4c(c3)COC3(CCN(CC(F)F)CC3)O4)c2c1)c1c(Cl)cncc1Cl [Example 168, 6-[5-[(1R)-1-(3,5-dichloro-4-pyridyl)ethoxy]-1H-indazol-3-yl]-1′-(2,2-difluoroethyl)spiro[4H-1,3-benzodioxine-2,4′-piperidine]]
> 1000 | > 1000 | 100 to 250 | 0.1 to 100 | COc1ncc(-c2n[nH]c3ccc(O[C@H](C)c4c(Cl)cncc4Cl)cc23)cc1NC(=O)N1CCN(C)CC1 [Example 7, (R)—N-(5-(5-(1-(3,5-Dichloropyridin-4-yl)ethoxy)-1H-indazol-3-yl)-2-methoxypyridin-3-yl)-4-methylpiperazine-1-carboxamide]
> 1000 | > 1000 | 100 to 250 | 100 to 250 | Cc1ncc(Cl)c([C@@H](C)Oc2cc3c(-c4cnc5c(c4)N(S(C)(=O)=O)CCO5)n[nH]c3cc2Cl)c1Cl [Example 143, 7-[6-chloro-5-[(1R)-1-(3,5-dichloro-2-methyl-4-pyridyl)ethoxy]-1H-indazol-3-yl]-1-methylsulfonyl-2,3-dihydropyrido[2,3-b][1,4]oxazine]
> 1000 | > 1000 | > 1000 | 250 to 1000 | COc1cc(C#N)cc(-c2n[nH]c3cc(OC)c(O[C@@H](C)c4c(C)cnnc4C)cc23)c1 [Example 97, (S)-3-(5-(1-(3,5-dimethylpyridazin-4-yl)ethoxy)-6-methoxy-1H-indazol-3-yl)-5-methoxybenzonitrile]
0.1 to 100 | 0.1 to 100 | 0.1 to 100 | 0.1 to 100 | COc1cc2[nH]nc(-c3cnc(O[C@@H]4CCOC4)c(C#N)c3)c2cc1O[C@H](C)c1c(Cl)cncc1Cl [Example 136, 5-(5-((R)-1-(3,5-dichloropyridin-4-yl)ethoxy)-6-methoxy-1H-indazol-3-yl)-2-(((R)-tetrahydrofuran-3-yl)oxy)nicotinonitrile]
100 to 250 | 100 to 250 | 0.1 to 100 | 0.1 to 100 | Cc1cnnc(C)c1[C@@H](C)Oc1ccc2[nH]nc(-c3cnc(N(C)C)c(C#N)c3)c2c1 [Example 89, (R)-2-(dimethylamino)-5-(5-(1-(3,5-dimethylpyridazin-4-yl)ethoxy)-1H-indazol-3-yl)nicotinonitrile]
> 1000 | > 1000 | 100 to 250 | 0.1 to 100 | COc1ncc(-c2n[nH]c3ccc(O[C@H](C)c4c(Cl)cncc4Cl)cc23)cc1NC(=O)CN(C)C [Example 15, N-[5-[5-[(1R)-1-(3,5-dichloro-4-pyridyl)ethoxy]-1H-indazol-3-yl]-2-methoxy-3-pyridyl]-2-(dimethylamino)acetamide]
> 1000 | > 1000 | > 1000 | 0.1 to 100 | C[C@@H](Oc1ccc2[nH]nc(-c3cnc(N)c(OCC(F)(F)F)c3)c2c1)c1c(Cl)cncc1Cl [Example 37, 5-[5-[(1R)-1-(3,5-Dichloro-4-pyridyl)ethoxy]-1H-indazol-3-yl]-3-(2,2,2-trifluoroethoxy)pyridin-2-amine]
0.1 to 100 | 0.1 to 100 | 0.1 to 100 | 0.1 to 100 | Cc1cc(-c2n[nH]c3ccc(O[C@H](C)c4c(C)cnnc4C)cc23)cc(C#N)c1OC1CCN(C2CCC2)CC1 [Example 120, (R)-2-((1-cyclobutylpiperidin-4-yl)oxy)-5-(5-(1-(3,5-dimethylpyridazin-4-yl)ethoxy)-1H-indazol-3-yl)-3-methylbenzonitrile]
0.1 to 100 | 100 to 250 | 0.1 to 100 | 0.1 to 100 | C[C@@H](Oc1ccc2[nH]nc(-c3cnc(O[C@@H]4CCOC4)c(C#N)c3)c2c1)c1c(Cl)cncc1Cl [Example 134, 5-(5-((R)-1-(3,5-dichloropyridin-4-yl)ethoxy)-1H-indazol-3-yl)-2-(((R)-tetrahydrofuran-3-yl)oxy)nicotinonitrile]
100 to 250 | 100 to 250 | 0.1 to 100 | 250 to 1000 | COc1cc(NCc2cccnc2)cc(-c2n[nH]c3ccc(O[C@H](C)c4c(Cl)cncc4Cl)cc23)c1 [Example 47, 3-[5-[(1R)-1-(3,5-dichloro-4-pyridyl)ethoxy]-1H-indazol-3-yl]-5-methoxy-N-(3-pyridyl-methyl)aniline]
> 1000 | 250 to 1000 | 250 to 1000 | 0.1 to 100 | COc1cc(-c2n[nH]c3ccc(O[C@H](C)c4c(Cl)cncc4Cl)cc23)cc(C#N)c1OC1CCN(C(C)C)CC1 [Example 126, 5-[5-[(1R)-1-(3,5-dichloro-4-pyridyl)ethoxy]-1H-indazol-3-yl]-2-[(1-isopropyl-4-piperidyl)oxy]-3-methoxy-benzonitrile]
> 1000 | > 1000 | > 1000 | 0.1 to 100 | COc1ncc(-c2n[nH]c3ccc(O[C@H](C)c4c(Cl)cncc4Cl)cc23)cc1NC(=O)c1ccccn1 [Example 2, (R)—N-(5-(5-(1-(3,5-Dichloropyridin-4-yl)ethoxy)-1H-indazol-3-yl)-2-methoxypyridin-3-yl)picolinamide]
